Measured values: patent US8952024B2, “Herbicidal pyrimidone derivatives” (E I du Pont de Nemours and Company, priority 2009, dated 2015)

Tests used:
Test in all cases: Test B pre-/postemergence plant response
Format in all cases: in vivo
[1] = tested on: Surinam grass (Brachiaria decumbens); settings: for Surinam Grass plant response rating (0 to 100 scale): 62 g ai/ha, postemergence, 0 is no effect, 100 is complete control, 13 to 15 days; for Plant response rating, Surinam Grass: Postemergence
Outline: (§1)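 Visual injury, 0–100 scale (100 = complete control), rated against controls after 13 to 15 days in greenhouse. Pre-emergence: seeds in loam/sand soil, treated at planting. Post-emergence: 1- to 4-leaf plants (2 to 18 cm) in peat/vermiculite medium. Compounds formulated in non-phytotoxic solvent with surfactant.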

[2] = tested on: cocklebur (Xanthium strumarium); settings: for Cocklebur plant response rating (0 to 100 scale): 62 g ai/ha, 0 is no effect, 13 to 15 days
Outline: as §1

kochia (Kochia scoparia) = settings: for Kochia plant response rating (0 to 100 scale): 62 g ai/ha, 0 is no effect, 13 to 15 days
Outline: as §1

[3] = tested on: lambsquarters (Chenopodium album); settings: for Lambsquarters plant response rating (0 to 100 scale): 62 g ai/ha, 0 is no effect, 13 to 15 days
Outline: as §1

[4] = tested on: large crabgrass (Digitaria sanguinalis); settings: for Crabgrass, Large plant response rating (0 to 100 scale): 62 g ai/ha, 0 is no effect, 13 to 15 days
Outline: as §1

wild oat (Avena fatua) = settings: for Oat, Wild plant response rating (0 to 100 scale): 62 g ai/ha, 0 is no effect, 13 to 15 days
Outline: as §1

[5] = tested on: woolly cupgrass (Eriochloa villosa); settings: for Cupgrass, Woolly plant response rating (0 to 100 scale): 62 g ai/ha, 0 is no effect, 13 to 15 days
Outline: as §1

[6] = tested on: yellow nutsedge (Cyperus esculentus); settings: for Nutsedge, Yellow plant response rating (0 to 100 scale): 62 g ai/ha, 0 is no effect, 13 to 15 days
Outline: as §1

[7] = 125 g ai/ha, scale 0 to 100 (0 no effect, 100 complete control)
[8] = 250 g ai/ha, scale 0 to 100 (0 no effect, 100 complete control)
[9] = 31 g ai/ha, postemergence, scale 0 to 100, 0 is no effect, 100 is complete control
[10] = postemergence, 100 is complete control
[11] = Postemergence, 125 g ai/ha, scale 0 to 100 (0 no effect, 100 complete control)
[12] = Postemergence, 250 g ai/ha, scale 0 to 100 (0 no effect, 100 complete control)
[13] = 16 g ai/ha, Postemergence, 0 to 100 scale
[14] = Postemergence, 31 g ai/ha, 0 to 100 scale (0 no effect, 100 complete control)

| Structure (SMILES) | Surinam Grass plant response rating (0 to 100 scale) [1] | Plant response rating, Surinam Grass [1, 7] | Plant response rating, Surinam Grass [1, 8] | Plant response rating, Cocklebur [2, 9] | Cocklebur plant response rating (0 to 100 scale) [2, 10] | Plant response rating, Cocklebur [2, 11] | Plant response rating, Cocklebur [2, 12] | Kochia plant response rating (0 to 100 scale) (kochia (Kochia scoparia); [10]) | Plant response rating, Kochia (kochia (Kochia scoparia); [11]) | Plant response rating, Kochia (kochia (Kochia scoparia); [12]) | Lambsquarters plant response rating (0 to 100 scale) [3, 10] | Plant response rating, Lambsquarters [3, 11] | Crabgrass, Large plant response rating (0 to 100 scale) [4, 10] | Plant response rating, Crabgrass, Large [4, 11] | Oat, Wild plant response rating (0 to 100 scale) (wild oat (Avena fatua); [10]) | Plant response rating, Oat, Wild (wild oat (Avena fatua); [11]) | Cupgrass, Woolly plant response rating (0 to 100 scale) [5, 10] | Plant response rating, Cupgrass, Woolly [5, 11] | Nutsedge, Yellow plant response rating (0 to 100 scale) [6, 10] | Plant response rating, Nutsedge, Yellow [6, 11] | further results |
| --- | --- | --- | --- | --- | --- | --- | --- | --- | --- | --- | --- | --- | --- | --- | --- | --- | --- | --- | --- | --- | --- |
| CCCn1c(-c2cccc(OC)c2)ncc(C(=O)C2=C(O)CCCC2=O)c1=O [Compound 100] | 65 | 65 | 75 | 40 | 85 | 95 | 98 | 95 | 98 | 100 | 98 | 98 | 60 | 75 | 10 | 30 | 65 | 70 | 5 | 15 | Plant response rating, Lambsquarters [3, 9]: 95; Plant response rating, Lambsquarters [3, 12]: 98; Plant response rating, Crabgrass, Large [4, 9]: 55; Plant response rating, Crabgrass, Large [4, 12]: 80; Plant response rating, Oat, Wild (wild oat (Avena fatua); [9]): 0; Plant response rating, Oat, Wild (wild oat (Avena fatua); [12]): 30; Plant response rating, Cupgrass, Woolly [5, 12]: 75; Plant response rating, Nutsedge, Yellow [6, 12]: 40 |
| COCCn1c(-c2cccs2)ncc(C(=O)C2=C(O)CCCC2=O)c1=O [Compound 108] | 60 | 65 | 80 | 75 | 95 | 100 | 100 | 95 | 98 | 100 | 98 | 100 | 70 | 75 | 0 | 0 | 60 | 70 | 75 | 80 | Plant response rating, Kochia (kochia (Kochia scoparia); [9]): 70; Plant response rating, Lambsquarters [3, 9]: 98; Plant response rating, Lambsquarters [3, 12]: 100; Plant response rating, Crabgrass, Large [4, 9]: 60; Plant response rating, Crabgrass, Large [4, 12]: 85; Plant response rating, Oat, Wild (wild oat (Avena fatua); [9]): 0; Plant response rating, Oat, Wild (wild oat (Avena fatua); [12]): 0; Plant response rating, Cupgrass, Woolly [5, 9]: 40; Plant response rating, Cupgrass, Woolly [5, 12]: 75; Plant response rating, Nutsedge, Yellow [6, 9]: 50; Plant response rating, Nutsedge, Yellow [6, 12]: 85 |
| O=C1CCCC(O)=C1C(=O)c1cnc(-c2cccs2)n(CC2CCCO2)c1=O (stereo not drawn) [Compound 109] | 65 | 65 | 80 | 75 | 98 | 100 | 100 | 75 | 85 | 98 | 98 | 100 | 75 | 75 | 0 | 30 | 60 | 60 | 65 | 75 | Plant response rating, Kochia (kochia (Kochia scoparia); [9]): 70; Plant response rating, Lambsquarters [3, 9]: 98; Plant response rating, Lambsquarters [3, 12]: 100; Plant response rating, Crabgrass, Large [4, 9]: 65; Plant response rating, Crabgrass, Large [4, 12]: 85; Plant response rating, Oat, Wild (wild oat (Avena fatua); [9]): 0; Plant response rating, Oat, Wild (wild oat (Avena fatua); [12]): 40; Plant response rating, Cupgrass, Woolly [5, 12]: 75; Plant response rating, Nutsedge, Yellow [6, 12]: 80 |
| COCCn1c(-c2ccco2)ncc(C(=O)C2=C(O)CCCC2=O)c1=O [Compound 111] | – | 70 | 80 | 98 | 98 | 100 | 100 | 100 | 100 | 100 | 98 | 100 | 75 | 80 | 0 | 0 | 50 | 75 | 75 | 80 | Plant response rating, Kochia (kochia (Kochia scoparia); [9]): 80; Plant response rating, Lambsquarters [3, 9]: 98; Plant response rating, Lambsquarters [3, 12]: 100; Plant response rating, Crabgrass, Large [4, 9]: 70; Plant response rating, Crabgrass, Large [4, 12]: 85; Plant response rating, Oat, Wild (wild oat (Avena fatua); [9]): 0; Plant response rating, Oat, Wild (wild oat (Avena fatua); [12]): 10; Plant response rating, Cupgrass, Woolly [5, 9]: 40; Plant response rating, Cupgrass, Woolly [5, 12]: 75; Plant response rating, Nutsedge, Yellow [6, 9]: 65; Plant response rating, Nutsedge, Yellow [6, 12]: 85 |
| CCn1c(-c2cc(F)cc(F)c2)ncc(C(=O)C2=C(O)CCCC2=O)c1=O [Compound 122] | 75 | 90 | – | – | 45 | 85 | – | 0 | 45 | – | 65 | 90 | 75 | 85 | 30 | 35 | 70 | 75 | 70 | 75 | Plant response rating, Surinam Grass ([1]; 16 g ai/ha, 0 to 100 scale): 25; Plant response rating, Surinam Grass ([1]; 31 g ai/ha, 0 to 100 scale (0 no effect, 100 complete control)): 75; Plant response rating, Cocklebur [2, 13]: 0; Plant response rating, Cocklebur [2, 14]: 20; Plant response rating, Kochia (kochia (Kochia scoparia); [13]): 0; Plant response rating, Kochia (kochia (Kochia scoparia); [14]): 0; Plant response rating, Lambsquarters [3, 13]: 55; Plant response rating, Lambsquarters [3, 14]: 60; Plant response rating, Crabgrass, Large [4, 13]: 65; Plant response rating, Crabgrass, Large [4, 14]: 75; Plant response rating, Oat, Wild (wild oat (Avena fatua); [13]): 5; Plant response rating, Oat, Wild (wild oat (Avena fatua); [14]): 5; Plant response rating, Cupgrass, Woolly [5, 13]: 65; Plant response rating, Cupgrass, Woolly [5, 14]: 65; Plant response rating, Nutsedge, Yellow [6, 13]: 35; Plant response rating, Nutsedge, Yellow [6, 14]: 55 |
